The target of experiment [1] is T1, CYC domain of XC_0250 (CYCHis6) (Xanthomonas campestris, UniProt Q8PDU5).
T1 construct: gene XCC0240; single band of 21 kDa
The experiment in a line: guanylyl cyclase assay, reverse-phase HPLC and mass spectrometry. In kind it is biochemical. Particulars: 0.5 mM GTP, 10 mM MnCl2, pH 8.0, 25°C.

In a further experiment the target is T2, full-length XC_0249 (Xanthomonas campestris, UniProt Q8PDU6).
T2 construct: gene XCC0239; full-length purified protein; cNMP domain plus GGDEF domain
The experiment in a line: diguanylate cyclase assay, HPLC and mass spectrometry. Type of experiment: biochemical. Conditions: 150 μM GTP, 10 mM MgCl2, pH 7.6, 60 min.

In experiment [2] the target is cNMP domain of XC_0249 (Xanthomonas campestris pv. campestris (Xcc) strain 8004). The experiment in a line: crystal structure; XC_0249 cNMP domain with cyclic GMP bound, resolution 2.2 Å.

T1 sequence (Q8PDU5 entry or part of it): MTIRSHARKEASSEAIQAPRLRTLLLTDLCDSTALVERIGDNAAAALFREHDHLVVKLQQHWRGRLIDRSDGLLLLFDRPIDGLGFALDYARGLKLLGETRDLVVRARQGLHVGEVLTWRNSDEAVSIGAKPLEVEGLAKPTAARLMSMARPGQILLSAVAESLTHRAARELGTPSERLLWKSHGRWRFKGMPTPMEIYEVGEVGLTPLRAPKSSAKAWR
T2 sequence (Q8PDU6 entry or part of it): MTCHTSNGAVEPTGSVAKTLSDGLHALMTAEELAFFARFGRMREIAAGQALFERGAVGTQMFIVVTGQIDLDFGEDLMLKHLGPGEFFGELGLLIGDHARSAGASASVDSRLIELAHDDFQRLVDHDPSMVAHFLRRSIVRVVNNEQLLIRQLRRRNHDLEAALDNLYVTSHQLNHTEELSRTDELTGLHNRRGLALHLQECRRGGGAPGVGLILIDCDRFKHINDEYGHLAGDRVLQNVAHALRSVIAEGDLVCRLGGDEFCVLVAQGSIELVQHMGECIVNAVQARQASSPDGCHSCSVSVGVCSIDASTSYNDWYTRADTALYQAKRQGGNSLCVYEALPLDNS

For `Nc1nc2c(ncn2[C@@H]2O[C@H](COP(=O)(O)OP(=O)(O)OP(=O)(O)O)[C@@H](O)[C@H]2O)c(=O)[nH]1` [GTP], in experiment [1], the “guanylyl cyclase assay, reverse-phase HPLC and mass spectrometry” value is “This protein had guanylate cyclase activity, converting GTP to cyclic GMP”.

As to `Nc1nc2c(ncn2[C@@H]2O[C@@H]3COP(=O)(O)O[C@H]3[C@H]2O)c(=O)[nH]1` [cyclic GMP], in experiment [1], the “guanylyl cyclase assay, reverse-phase HPLC and mass spectrometry” value is “This protein had guanylate cyclase activity, converting GTP to cyclic GMP”.

As to `Nc1nc2c(ncn2[C@@H]2O[C@@H]3COP(=O)(O)O[C@H]4[C@@H](O)[C@H](n5cnc6c(=O)[nH]c(N)nc65)O[C@@H]4COP(=O)(O)O[C@H]3[C@H]2O)c(=O)[nH]1` [cyclic di-GMP], the “diguanylate cyclase assay, HPLC and mass spectrometry” value on full-length XC_0249 is “The identity of cyclic di-GMP as a product was confirmed by mass spectrometry”.

The compound “cNMP domain of XC_0249 (domain or fragment)” registered a stoichiometry N in experiment [2] of 2.

Source of the values: PMC3770947, “A cyclic GMP-dependent signalling pathway regulates bacterial phytopathogenesis” (The EMBO Journal, 2013).
